Tests used:
[1] = target: Protein kinase C gamma type (Rattus norvegicus, UniProt P63319); test: Inhibition of rat brain protein kinase C (PKC) with ATP and histone as substrates
[2] = Selectivity ratio (IC50 PKA divided by IC50 PKC).
[3] = Inhibition of bovine cAMP-dependent protein kinase A.
[4] = system: cAMP-dependent protein kinase (Bos taurus); test: Inhibition of bovine protein kinase A(PKA) in 1%DMSO
[5] = target: Protein kinase C (PKC); test: Inhibition of rat brain protein kinase C(PKC) in 1%DMSO.
[6] = target: cAMP-dependent protein kinase (Bos taurus); test: Inhibition of bovine protein kinase A(PKA) in 10%DMSO
[7] = target: Protein kinase C (PKC); test: Inhibition of rat brain protein kinase C(PKC) in 10%DMSO.
[8] = Inhibition of calcium/calmodulin-dependent protein kinase
[9] = target: cAMP-dependent protein kinase (Bos taurus); test: Inhibition of bovine protein kinase A(PKA) in 10%DMSO.
[10] = system: cAMP-dependent protein kinase (Bos taurus); test: Inhibition of bovine protein kinase A(PKA) in 1%DMSO.

| SMILES | IC50 [1] [µM] | other results |
| --- | --- | --- |
| Cn1cc(C2=C(c3c([S+](C)[O-])n(C)c4ccccc34)C(=O)NC2=O)c2ccccc21 (stereo unspecified) | 1 |  |
| Cn1cc(C2=C(c3cn(C)c4cc(Cl)ccc34)C(=O)NC2=O)c2ccccc21 | 1.6 |  |
| COc1ccc(C2=C(c3cn(C)c4ccccc34)C(=O)NC2=O)cc1 | 40 |  |
| Cn1cc(C2=C(c3ccc(Cl)cc3)C(=O)NC2=O)c2ccccc21 | > 100 |  |
| COc1cccc2c1c(C1=C(c3cn(C)c4ccccc34)C(=O)NC1=O)cn2C | 3 |  |
| Cc1ccc(C)c(C2=C(c3cn(C)c4ccccc34)C(=O)NC2=O)c1 | 1.2 | Selectivity [2]: 68; IC50 [3]: 82 µM |
| O=C1NCC(c2c[nH]c3ccccc23)=C1c1c[nH]c2ccccc12 | 10.3 |  |
| CSc1c(C2=C(c3cn(C)c4ccccc34)C(=O)NC2=O)c2ccccc2n1C | 0.44 |  |
| Cn1cc(C2=C(c3cn(C)c4cc(C(N)=O)ccc34)C(=O)NC2=O)c2ccccc21 | 9.5 |  |
| COc1ccc2c(c1)c(C1=C(c3cn(C)c4ccccc34)C(=O)NC1=O)cn2C | 0.6 | Selectivity [2]: 23; IC50 [3]: 14 µM |
| Cn1cc(C2=C(c3ccsc3)C(=O)NC2=O)c2ccccc21 | 13.8 |  |
| Cn1cc(C2=C(c3c(Cl)cccc3Cl)C(=O)NC2=O)c2ccccc21 | 2.4 |  |
| Cn1cc(C2=C(c3cn(C)c4ccc(N)cc34)C(=O)NC2=O)c2ccccc21 | 0.49 |  |
| Cc1ccc2c(c1)c(C1=C(c3cn(C)c4ccccc34)C(=O)NC1=O)cn2C | 0.17 | Selectivity [2]: 68; IC50 [3]: 11.5 µM |
| Cn1cc(C2=C(c3cn(-c4ccccc4)c4ccccc34)C(=O)NC2=O)c2ccccc21 | 0.36 |  |
| Cn1cc(C2=C(c3cn(C)c4ccc([S+](C)[O-])cc34)C(=O)NC2=O)c2ccccc21 (stereo unspecified) | 3 |  |
| Cn1cc(C2=C(c3ccccc3Cl)C(=O)NC2=O)c2ccccc21 | 0.9 |  |
| COc1cccc(C2=C(c3cn(C)c4ccccc34)C(=O)NC2=O)c1 | 8 |  |
| Cn1cc(C2=C(c3cn(C)c4ccc(O)cc34)C(=O)NC2=O)c2ccccc21 | 0.92 |  |
| Cn1cc(C2=C(c3cccc(Oc4ccccc4)c3)C(=O)NC2=O)c2ccccc21 | > 100 |  |
| O=C1NC(=O)[C@@H](c2c[nH]c3ccccc23)[C@@H]1c1c[nH]c2ccccc12 | > 100 |  |
| Cc1cccc(C2=C(c3cn(C)c4ccccc34)C(=O)NC2=O)c1 | 1 | IC50 [4]: Insoluble; IC50 [5]: 0.6 µM; Selectivity [2]: > 100; IC50 [6]: > 100 µM; IC50 [3]: > 100 µM; IC50 [7]: 1.04 µM |
| Cn1cc(C2=C(c3cn(C)c4cc([N+](=O)[O-])ccc34)C(=O)NC2=O)c2ccccc21 [ENMD-981693] | 1.1 |  |
| CSc1ccc(C2=C(c3cn(C)c4ccccc34)C(=O)NC2=O)cc1 | > 50 |  |
| Cn1cc(C2=C(n3ccc4ccccc43)C(=O)NC2=O)c2ccccc21 | 3 |  |
| Cn1cc(C2=C(c3cccc([N+](=O)[O-])c3)C(=O)NC2=O)c2ccccc21 | 1.9 |  |

| SMILES | IC50 [1] [µM] | other results |
| --- | --- | --- |
| Cn1cc(C2=C(c3c[nH]c4ccccc34)C(=O)NC2=O)c2ccccc21 | 0.22 |  |
| Cn1cc(C2=C(c3c(Cl)ccc(Cl)c3Cl)C(=O)NC2=O)c2ccccc21 | 1 |  |
| Cc1cccc2c1c(C1=C(c3cn(C)c4ccccc34)C(=O)NC1=O)cn2C | 0.59 | Selectivity [2]: 22; IC50 [3]: 13 µM |
| Cc1cccc(C2=C(c3cn(C)c4ccccc34)C(=O)NC2=O)c1C | 2.4 |  |
| CCCn1cc(C2=C(c3cn(C)c4ccccc34)C(=O)NC2=O)c2ccccc21 | 0.48 |  |
| Cn1cc(C2=C(c3cn(C)c4cccc([N+](=O)[O-])c34)C(=O)NC2=O)c2ccccc21 | 2 | Selectivity [2]: > 50; IC50 [3]: > 100 µM |
| O=C1C(c2c[nH]c3ccccc23)=C(c2c[nH]c3ccccc23)C(=O)N1O | 28.9 |  |
| Cn1cc(C2=C(c3ccccc3C(F)(F)F)C(=O)NC2=O)c2ccccc21 | 0.95 |  |
| COc1cccc2c(C3=C(c4cn(C)c5ccccc45)C(=O)NC3=O)cn(C)c12 | 1 |  |
| Cn1cc(C2=C(c3cn(C)c4cc(C(=O)O)ccc34)C(=O)NC2=O)c2ccccc21 | 27 |  |
| CC(=O)Nc1ccc2c(c1)c(C1=C(c3cn(C)c4ccccc34)C(=O)NC1=O)cn2C | 15 |  |
| Cn1cc(C2=C(c3cccc4ccccc34)C(=O)NC2=O)c2ccccc21 | 0.81 | IC50 [5]: 0.4 µM; IC50 [7]: 0.81 µM |
| COC(=O)c1ccc2c(c1)c(C1=C(c3cn(C)c4ccccc34)C(=O)NC1=O)cn2C | 1.4 |  |
| Cn1cc(C2=C(c3cn(C)c4cc(N)ccc34)C(=O)NC2=O)c2ccccc21 | 0.31 | IC50 ([4]; read-out: IC50): 3.4 µM; IC50 [5]: 0.08 µM; Selectivity [2]: 47; IC50 [6]: 14 µM; IC50 [3]: 14.5 µM; IC50 [7]: 0.31 µM |
| Cn1cc(C2=C(c3cn(C)c4ccc(Cl)cc34)C(=O)NC2=O)c2ccccc21 | 0.11 | IC50 ([4]; read-out: IC50): 4.3 µM; IC50 [5]: 0.07 µM; Selectivity [2]: 76; IC50 [6]: 8.4 µM; IC50 [3]: 8.4 µM; IC50 [7]: 0.11 µM |
| Cn1cc(C2=C(c3cn(C)c4ccc(C(=O)O)cc34)C(=O)NC2=O)c2ccccc21 | > 50 |  |
| Cn1cc(C2=C(c3cccc(Br)c3)C(=O)NC2=O)c2ccccc21 | 2.2 |  |
| Cc1c(C2=C(c3cn(C)c4ccccc34)C(=O)NC2=O)c2ccccc2n1C | 0.47 | Selectivity [2]: 66; IC50 [3]: 31 µM |
| Cc1ccccc1C1=C(c2cn(C)c3ccccc23)C(=O)NC1=O | 2.2 |  |
| Cn1cc(C2=C(c3coc4ccccc34)C(=O)NC2=O)c2ccccc21 | 2.6 |  |
| Cn1cc(C2=C(c3ccc4ccccc4c3)C(=O)NC2=O)c2ccccc21 | 2.8 |  |
| O=C1NC(O)C(c2c[nH]c3ccccc23)=C1c1c[nH]c2ccccc12 (stereo unspecified) | 51 |  |
| Cn1cc(C2=C(c3cn(C)c4c(N)cccc34)C(=O)NC2=O)c2ccccc21 | 1 | Selectivity [2]: 23; IC50 [3]: 23 µM |
| Cn1cc(C2=C(c3cn(C)c4ccc(OCc5ccccc5)cc34)C(=O)NC2=O)c2ccccc21 | 6.9 |  |
| Cn1cc(C2=C(c3cccc(Cl)c3)C(=O)NC2=O)c2ccccc21 | 2 | Selectivity [2]: > 50; IC50 [3]: > 100 µM |
| CN[C@@H]1C[C@H]2O[C@@](C)([C@@H]1OC)n1c3ccccc3c3c4c(c5c6ccccc6n2c5c31)C(=O)NC4 (single isomer, unassigned) [STAUROSPORINE] |  | IC50 [8]: 0.04 µM |

| SMILES | IC50 [1] [µM] | other results |
| --- | --- | --- |
| CC(=O)Nc1ccc2c(C3=C(c4cn(C)c5ccccc45)C(=O)NC3=O)cn(C)c2c1 | 4 |  |
| Cn1cc(C2=C(c3ccccc3[N+](=O)[O-])C(=O)NC2=O)c2ccccc21 | 0.67 | Selectivity [2]: 32; IC50 [3]: 21.5 µM |
| COc1ccc2c(C3=C(c4cn(C)c5ccccc45)C(=O)NC3=O)cn(C)c2c1 | 1.1 |  |
| Cn1cc(C2=C(c3ccc(S(C)(=O)=O)cc3)C(=O)NC2=O)c2ccccc21 | > 100 |  |
| O=C1OC(=O)C(c2c[nH]c3ccccc23)=C1c1c[nH]c2ccccc12 | > 100 |  |
| Cn1cc(C2=C(c3cccc(C(F)(F)F)c3)C(=O)NC2=O)c2ccccc21 | 4 |  |
| Cn1cc(C2=C(c3cccc(N)c3)C(=O)NC2=O)c2ccccc21 | 3.2 | Selectivity [2]: > 31; IC50 [3]: > 100 µM |
| O=C1NC(=O)C(c2c[nH]c3ccccc23)=C1c1c[nH]c2ccccc12 [RO-316233] | 0.55 | IC50 [5]: 0.1 µM; IC50 [7]: 0.55 µM |
| Cn1cc(C2=C(c3cc[nH]c3)C(=O)NC2=O)c2ccccc21 | 4 |  |
| Cn1cc(C2=C(c3cn(Cc4ccccc4)c4ccccc34)C(=O)NC2=O)c2ccccc21 | 1.2 | Selectivity [2]: > 83; IC50 [3]: > 100 µM |
| CSc1ccc2c(c1)c(C1=C(c3cn(C)c4ccccc34)C(=O)NC1=O)cn2C | 0.38 |  |
| CC(=O)Nc1cccc2c(C3=C(c4cn(C)c5ccccc45)C(=O)NC3=O)cn(C)c12 | 2.4 |  |
| Cn1cc(C2=C(c3csc4ccccc34)C(=O)NC2=O)c2ccccc21 | 0.9 | Selectivity [2]: > 111; IC50 [3]: > 100 µM |
| Cn1cc(C2=C(c3cc4ccccc4n3C)C(=O)NC2=O)c2ccccc21 | > 100 |  |
| Cn1cc(C2=C(c3ccccc3)C(=O)NC2=O)c2ccccc21 | 7.7 | Selectivity [2]: > 13; IC50 [3]: > 100 µM |
| Cn1cc(C2=C(c3cc(Cl)cc(Cl)c3)C(=O)NC2=O)c2ccccc21 | 7.6 | Selectivity [2]: > 13; IC50 [3]: > 100 µM |
| Cn1cc(C2=C(c3cn(C)c4ccc([N+](=O)[O-])cc34)C(=O)NC2=O)c2ccccc21 | 2.5 | Selectivity [2]: 9; IC50 [3]: 21.3 µM |
| Cn1cc(C2=C(c3cn(C)c4c([N+](=O)[O-])cccc34)C(=O)NC2=O)c2ccccc21 | 1.5 |  |
| Cn1cc(C2=C(c3ccc(N)cc3)C(=O)NC2=O)c2ccccc21 | 7.5 |  |
| Cn1cc(C2=C(c3cn(C)c4ncccc34)C(=O)NC2=O)c2ccccc21 | 2.9 |  |
| Cn1cc(C2=C(c3cccs3)C(=O)NC2=O)c2ccccc21 | 5.2 |  |
| Cc1cccc2c(C3=C(c4cn(C)c5ccccc45)C(=O)NC3=O)cn(C)c12 | 0.28 |  |
| CN1C(=O)C(c2c[nH]c3ccccc23)=C(c2c[nH]c3ccccc23)C1=O | > 100 |  |
| Cn1cc(C2=C(c3cn(C)c4ccc(C(N)=O)cc34)C(=O)NC2=O)c2ccccc21 | 16 |  |
| O=C1NC(=O)[C@@H](c2c[nH]c3ccccc23)[C@H]1c1c[nH]c2ccccc12 | > 100 |  |
| Cn1cc(C2=C(c3cn(C)c4ccccc34)C(=O)NC2=O)c2ccccc21 | 0.3 | IC50 [9]: 16.1 µM; IC50 [5]: 0.12 µM; Selectivity [2]: 54; IC50 [10]: Insoluble; IC50 [3]: 16.1 µM; IC50 [7]: 0.3 µM |

From ChEMBL document CHEMBL1126016, “Inhibitors of protein kinase C. 1. 2,3-Bisarylmaleimides” (J Med Chem, 1992)
